The subject of assay [1] is BxPC3 cells. Kind of assay: Viability of BxPC3 cells in co-culture with MART-1-specific TCR-T cells (CellTiter-Blue). The settings on record: single agent: 5 μM AR-C, 10 μg/ml atezolizumab or 10 μg/ml durvalumab, 6-24 hours (FIG. 11). It is filed as cell-based, human. An excerpt: FIG. 11. […] Untreated cells served as the control.
(§1) MART-1 specific T cells were generated as described (Mezzadra et al., Nature 549, 106-110 (2017); Jorritsma et al., Blood 110 (10): 3564-3572. (2007)). To generate CD33-specific chimeric antigen receptor (CAR) T cells, a CD33Hul95-CD28Z CAR (described in WO 2019/178382) cassette was cloned into a retroviral vector, and the resulting virus was used to transduce T cells as described (Mezzadra et al., Nature 549, 106-110 (2017); Jorritsma et al., Blood 110 (10): 3564-3572. (2007)).
(§2) MART1-specific CD8+ T cells and MART1 epitope-expressing cancer cells were mixed at a ratio of 1:16 to 1:4. Next, cells were centrifugated at 1,600 g for 3 min and incubated at 37° C. and 5% CO2 for 12-72 hours. T cell activation was assessed by surface staining with anti-CD137-BV421 (4-1BB, Biolegend), anti-CD69-APC/Fire™ 750 (FN50, Biolegend), anti-CD25-AF700 (BC96, Biolegend) antibodies and intracellular staining with anti-IL-2-PE/Cy7 (MQ1-17H12, Biolegend), anti-IFN-7-BV421 (4S.B3, Biolegend), anti-TNF-α-BV785 (MAb11, Biolegend) antibodies, followed by flow cytometry analysis. For intracellular staining, brefeldin A (Biolegend) was added to the cell culture medium 4 h before cells were harvested. The viability of cancer cells that grow in suspension including THP-1 cells was assessed by flow cytometry-based absolute cell counting using AccuCount beads (Spherotech). For adherent cancer cells including BxPC3 and MCF7, the cell viability was quantified using CellTiter-Blue Cell Viability Assay (Promega).
Background: Resazurin is reduced to fluorescent resorufin, in cell work by metabolically active cells.

The test system of assay [2] is MART-1-specific TCR transduced T cells cultured with MART-1-epitope transduced BxPC3 cells. Kind of assay: T cell activation markers in co-culture of MART-1-specific TCR-T cells with MART-1+ BxPC3 cells. Format: cell-based, human. The settings on record: single agent: 5 μM AR-C, 10 μg/ml atezolizumab or 10 μg/ml durvalumab, 6-24 hours, CD8+ MART-1-specific TCR+ population (FIG. 10).
From the text: FIG. 10. […] Untreated cells served as the control.
as §1
as §2, with “Next, cells were centrifugated at 1,600 g for 3 min and incubated at 37° C. and 5% CO2 for 12-72 hours.” left out

This is an account of results in patent US20250281610A1, “P2RY2 ACTIVITY MODULATORS” (Deutsches Krebsforschungszentrum Stiftung des öffentlichen …, priority 2022, published 2025).

As for `Cc1ccc2c(c1)C=Cc1cc(C)ccc1C2c1cn(Cc2ccc(C(=O)Nc3nn[nH]n3)o2)c(=O)[nH]c1=S` [AR-C 118925XX], in assay [1], the “viability of BxPC3 cells” value was “reduced”. Further, in assay [2], the “expression of CD25 on T cells” value is “elevated”, the “expression of CD69 on T cells” value is listed as “elevated” and the “expression of CD137 on T cells” value was “elevated”.
